In patent publication US11104657B2, “Notch inhibitors for use in the treatment of t-cell acute lymphoblastic leukemia” (UNIVERSITÀ DEGLI STUDI DI ROMA “LA SAPIENZA”, priority 2016, dated 2021):
Like-named read-outs stand apart in the source and are kept apart here.

Assays:
[1] = tested on: activated domain of Notch1 in HaCaT cells; test: Western blot of N1VAL expression in HaCaT cells; format: cell-based; details: 36 hours
Protocol: Laemmli Sample Buffer (161-0737; Bio-Rad Laboratories Inc., Hercules, Calif., USA) was added to each cell pellet. Cells were lysed by ultrasonic sonication and to each mixture 5% 2-mercaptoethanol (161-0710; Bio-Rad Laboratories Inc., Hercules, Calif., USA) was added. Samples were denatured at 100° C. for 5 min and protein mixtures were separated by means of Sodium Dodecyl Sulphate-Polyacrylamide Gel Electrophoresis using 8% acrylamide and transferred onto nitrocellulose membranes. After transfer, the membranes pre-saturated in 5% Blot Dry Fat Milk (1706404; Bio-Rad Laboratories Inc., Hercules, Calif., USA) were incubated for 16 hours at +4° C. with the following primary antibodies diluted at 1:1000 in 5% Dry Fat Milk (1706404; Bio-Rad Laboratories Inc., Hercules, Calif., USA): Notch1Val1744 (2421; Cell Signaling Technology, Beverly, Mass., USA), Notch3 (2889; Cell Signaling Technology, Beverly, Mass., USA) and β-actin (sc-47778; Santa Cruz Biotechnology, Santa Cruz, Calif., USA). Subsequently, filters were incubated for 1 hour at room temperature with the following secondary antibodies: anti-rabbit (sc-2004, Santa Cruz Biotechnology, Santa Cruz, Calif., USA) or anti-mouse (sc-2005, Santa Cruz Biotechnology, Santa Cruz, Calif., USA). […]

[2] = tested on: HaCaT keratinocytes; test: MTS cell proliferation assay, HaCaT keratinocytes; format: cell-based; details: Homo sapiens; immortalized non-tumor HaCaT keratinocytes
Protocol: (§1) The cell lines DND41 (ACC 525, DSMZ, Braunschweig, GERMANY), KOPTK1 (RRID: CVCL_4965) were maintained in culture in RPMI-1640 (Gibco, Carlsbad, Calif., USA) with 10% fetal bovine serum. TALL-1 cells (ACC-521: DSMZ, Braunschweig, GERMANY) were cultured in RPMI-1640 (Gibco, Carlsbad, Calif., USA) supplemented with 20% fetal bovine serum, while HaCaT cells (ACC-771: DSMZ, Braunschweig, GERMANY) were maintained in Eagle's culture medium according to Dulbecco (Gibco, Carlsbad, Calif., USA) containing 10% fetal bovine serum. Cells were treated with the naturally-occurring compounds A-H or with compounds 1-17 for times and concentrations indicated in the text. […]
(§2) All treatments were carried out in triplicate, including control treatments. […] To quantify vitality, cells were assayed by the MTS CellTiter 96® AQueous One Solution Cell Proliferation Assay (G3580; Promega, Madison, Wis., USA). Absorbance was detected at 490 nm using the GloMax Multidetection System instrument (Promega, Madison, Wis., USA). Data were collected in the form of absorbance units (ABSs) and standardized to obtain the proliferation rate (MTS) through the equation: % cell proliferation=(ABScell culture+compound−ABSculture medium+compound/(ABScell culture+DMSO−ABSculture medium+DMSO)×100. […]

[3] = tested on: TALL-1 cells; test: MTS cell proliferation assay, TALL-1; format: cell-based; details: Homo sapiens
Protocol: as §1, §2

[4] = tested on: KOPTK1 cells; test: MTS cell proliferation assay, KOPTK1; format: cell-based; details: Homo sapiens
Protocol: as §1, §2

[5] = tested on: DND41 cells; test: MTS cell proliferation assay (IG50), DND41; format: cell-based, human; details: for IC50: Homo sapiens
Protocol: In order to evaluate the biological implications of the compounds, their effect on cell proliferation/vitality was tested by determining the relative concentrations of growth inhibition (IG50) by means of the MTS cellular assay.
The cell lines DND41 (ACC 525, DSMZ, Braunschweig, GERMANY), KOPTK1 (RRID: CVCL_4965) were maintained in culture in RPMI-1640 (Gibco, Carlsbad, Calif., USA) with 10% fetal bovine serum. TALL-1 cells (ACC-521: DSMZ, Braunschweig, GERMANY) were cultured in RPMI-1640 (Gibco, Carlsbad, Calif., USA) supplemented with 20% fetal bovine serum, while HaCaT cells (ACC-771: DSMZ, Braunschweig, GERMANY) were maintained in Eagle's culture medium according to Dulbecco (Gibco, Carlsbad, Calif., USA) containing 10% fetal bovine serum. Cells were treated with the naturally-occurring compounds A-H or with compounds 1-17 for times and concentrations indicated in the text.
Cells were seeded in 96-well plates with a density of 5×10^5 cells/ml (5×10^4 cells per well) and treated for the times and the concentrations of the various compounds, as indicated in the text.
All treatments were carried out in triplicate, including control treatments. All treatment reactions contained a final concentration of 1% DMSO (D5879; Sigma-Aldrich, St Louis, Mo., USA). To quantify vitality, cells were assayed by the MTS CellTiter 96® AQueous One Solution Cell Proliferation Assay (G3580; Promega, Madison, Wis., USA). Absorbance was detected at 490 nm using the GloMax Multidetection System instrument (Promega, Madison, Wis., USA). Data were collected in the form of absorbance units (ABSs) and standardized to obtain the proliferation rate (MTS) through the equation: % cell proliferation=(ABScell culture+compound−ABSculture medium+compound/(ABScell culture+DMSO−ABSculture medium+DMSO)×100.
The 50% inhibition concentration was calculated using the GraphPad Prism software program (GraphPad Software Inc., La Jolla, Calif., USA).

[6] = tested on: Notch signaling (N1VAL, N3ICD) in DND41 cells; test: Western blot of N1VAL and N3ICD expression in DND41 cells; format: cell-based, human; details: DND41 cells, 36 hours, 0-50 μM, Western blot
Protocol: In order to identify new naturally-occurring molecular agents able to modulate Notch signaling, the effects on protein expression of the activated domain of Notch1 (N1VAL), and of the intracellular domain of Notch3 (N3ICD), were evaluated in DND41 cells through
Western blotting assays, following treatment for 36 hours with increasing concentrations (0, 1, 5, 10, 20, 50 μM) of the eight molecules (A-H) previously selected. Functional biochemical screening was performed on T-ALL DND41 cells because they are notoriously sensitive to the block of Notch signaling, and characterized by the constitutive and ligand-independent activation of the Notch1 pathway and by the high expression of Notch3. This makes this cell line a useful experimental model for screening putative Notch inhibitors.
In order to investigate the activity and selectivity of action of the 12 synthetic derivatives of butein, and following the screening scheme described in the first design phase, the efficacy of these molecules was analyzed by verifying the effects of 36 hours of treatment at increasing doses on the activation of Notch signaling and on the proliferation in DND41 cells.
Laemmli Sample Buffer (161-0737; Bio-Rad Laboratories Inc., Hercules, Calif., USA) was added to each cell pellet. Cells were lysed by ultrasonic sonication and to each mixture 5% 2-mercaptoethanol (161-0710; Bio-Rad Laboratories Inc., Hercules, Calif., USA) was added. Samples were denatured at 100° C. for 5 min and protein mixtures were separated by means of Sodium Dodecyl Sulphate-Polyacrylamide Gel Electrophoresis using 8% acrylamide and transferred onto nitrocellulose membranes. After transfer, the membranes pre-saturated in 5% Blot Dry Fat Milk (1706404; Bio-Rad Laboratories Inc., Hercules, Calif., USA) were incubated for 16 hours at +4° C. with the following primary antibodies diluted at 1:1000 in 5% Dry Fat Milk (1706404; Bio-Rad Laboratories Inc., Hercules, Calif., USA): Notch1Val1744 (2421; Cell Signaling Technology, Beverly, Mass., USA), Notch3 (2889; Cell Signaling Technology, Beverly, Mass., USA) and β-actin (sc-47778; Santa Cruz Biotechnology, Santa Cruz, Calif., USA). Subsequently, filters were incubated for 1 hour at room temperature with the following secondary antibodies: anti-rabbit (sc-2004, Santa Cruz Biotechnology, Santa Cruz, Calif., USA) or anti-mouse (sc-2005, Santa Cruz Biotechnology, Santa Cruz, Calif., USA). Chemiluminescence signal detection was performed using the ECL Advanced Detection System substrate (RPN2135; E Healthcare UK Limited, Buckinghamshire, UK).

Compound	concentration from which expression of the activated domain of Notch1 is significantly reduced [1] [µM]	IC50 [2] [µM]	IC50 [3] [nM]	IC50 [4] [nM]	IC50 ([5]; 36-hour treatments in DND41 cells, mean of triplicate experiments ± S.D., Table 2, read-out: IG50 ± S.D.) [nM]	IC50 ([5]; DND41 cells, MTS assay, 36 hours of treatment, read-out: IG50 (growth inhibition)) [nM]	effect on the expression of N1VAL [6]	effect on cell proliferation ([5]; DND41 cells, doses of up to 50 μM)	IC50 ([5]; DND41, 36 h, read-out: IG50 S.D.) [nM]
COc1ccc(C(=O)/C=C/c2ccc(O)cc2)c(O)c1 [Compound 8, 2′,4-dihydroxy-4′-methoxychalcone]	≥ 2.5	48.6 ± 8.06	290 ± 20	910 ± 60	1920 ± 1040	1920	–	–	–
CC(=O)C1=C(O)[C@]2(C)C(=CC1=O)Oc1c(C(C)=O)c(O)c(C)c(O)c12 [Compound G, 2,6-diacetyl-7,9-dihydroxy-8,9b-dimethyldibenzofuran-1,3-dione, reference compound]	–	–	–	–	–	–	did not significantly modulate	do not significantly affect cell proliferation	> 50000
